Measurements taken from patent publication US7846934B2, “Furo[3,2-B] pyrrol-3-one derivatives and their use as cysteinyl proteinase inhibitors” (Amura Therapeutics Limited, priority 2007, dated 2010).

Key:
[1] = tested on: rat osteoclasts; assay: Rat osteoclast resorption assay; conditions: read-out: Cell-based % Inh. @ 1 μM Rat
Method: Bone resorption was studied using a model where mature osteoclasts derived from rat bone were cultured on bovine bone slices for 3 days and allowed to resorb bone in the presence of inhibitor, positive control (E-64) or vehicle. More specifically, tibia, femori and humeri were removed from 1 day old rat pups. The endosteal surfaces of the bones were scraped with a scapelto release osteoclasts into the culture medium and the osteoclasts were allowed to attach to bovine bone slices. After the culture period, bone collagen degradation products were quantified from the culture medium as an index of bone resorption. The assay was performed by Pharmatest Services Ltd, Itäinen Pitkakatu 4C, Turku, Finland.

[2] = target: T1, Human recombinant cathepsin K (Homo sapiens, UniProt P43235); assay: In vitro cathepsin Ki inhibition measurements; assay type: biochemical; conditions: Table 1; read-out: In vitro Ki (nM) vs Cath K
T1 construct: B. Turk, Josef Stefan Institute, Ljubljana, Slovenia (academic supplier)
T1 sequence (P43235 115-329): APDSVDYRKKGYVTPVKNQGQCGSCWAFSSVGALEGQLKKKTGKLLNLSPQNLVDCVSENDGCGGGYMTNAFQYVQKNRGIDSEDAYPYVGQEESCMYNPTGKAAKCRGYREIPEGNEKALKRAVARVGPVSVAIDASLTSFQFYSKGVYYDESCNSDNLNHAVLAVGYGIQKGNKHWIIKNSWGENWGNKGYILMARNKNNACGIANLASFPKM
Method: Stock solutions of substrate or inhibitor were made up to 10 mM in 100% dimethylsulfoxide (DMSO) (Rathburns, Glasgow, U.K.) and diluted as appropriately required. In all cases the DMSO concentration in the assays was maintained at less than 1% (vol./vol.). The equilibrium inhibition constants (Ki^SS) for each compound were measured under steady-state conditions monitoring enzyme activity as a function of inhibitor concentration. The values were calculated on the assumption of pure competitive behaviour (Comish-Bowden, A. Fundamentals of enzyme kinetics Portland Press; 1995, 93-128).
The apparent inhibition constant (Ki) for each compound was determined on the basis that inhibition was reversible and occurred by a pure-competitive mechanism. The Ki values were calculated, from the dependence of enzyme activity as a function of inhibitor concentration, by direct regression analysis (Prism v 3.02) using Equation 2 (Cornish-Bowden, A., 1995).
In situations where the apparent dissociation constant (Ki^app) approached the enzyme concentrations, the Ki^app values were calculated using a quadratic solution in the form described by Equation 3 (Morrison, J. F. Trends Biochem. Sci., 7, 102-105, 1982; Morrison, J. F. Biochim. Biophys. Acta, 185 269-286, 1969; Stone, S. R. and Hofsteenge, J. Biochemistry, 25, 4622-4628, 1986).
Curves were fitted by non-linear regression analysis (Prism) using a fixed value for the enzyme concentration. Equation 4 was used to account for the substrate kinetics, where ‘Ki’ is the inhibition constant, ‘[S0]’ is the initial substrate concentration and ‘KM^app’ is the apparent macroscopic binding (Michaelis) constant for the substrate (Morrison, 1982).

[3] = Liver microsomal incubations (HLM stability); conditions: human liver microsomes, 25 μM
[4] = tested on: human osteoclasts; assay: Human osteoclast resorption assay; assay type: cell-based; conditions: for inhibition at 1 µM: Homo sapiens, Osteoclast, read-out: Cell-based % Inh. @ 1 μM Human
Method: Bone resorption was studied using a model where human osteoclast precursor cells were cultured on bovine bone slices for 9 days and allowed to differentiate into bone-resorbing osteoclasts. The formed mature osteoclasts were then allowed to resorb bone. The assay was performed by Pharmatest Services Ltd, Itäinen Pitkakatu 4C, Turku, Finland. After the culture period, bone collagen degradation products were quantified from the culture medium as an index of bone resorption. Inhibitor compounds were added into the cell cultures after the differentiation period and their effects on the resorbing activity of mature osteoclasts were determined. The studies included a baseline group without added compounds and a positive control group where a potent cathepsin K inhibitor E-64 was added.
Human peripheral blood monocytes were suspended to culture medium and allowed to attach to bovine bone slices. The bone slices were transferred into 96-well tissue culture plates containing culture medium with appropriate amounts of important growth factors favouring osteoclast differentiation, including M-CSF, RANK-ligand and TGF-β. The cells were incubated in a CO2 incubator in humidified atmosphere of 95% air and 5% carbon dioxide at 37° C. At day 7 when osteoclast differentiation was complete, the culture medium was replaced with culture medium containing conditions favouring osteoclast activity. The cell culture was continued for an additional 2 days, during which the formed mature osteoclasts were allowed to resorb bone in the presence of vehicle, control inhibitor (E64) or test compounds. At the end of the culture, bone collagen degradation products released into the culture medium were determined using a commercially available ELISA method (CrossLaps® for culture, Nordic Bioscience, Herlev, Denmark) as an index of bone resorption (see Bagger, Y. Z. et al, J. Bone. Miner. Res. 14 (suppl. 1), S370).

[5] = LogD determinations (shake-flask, octanol/PBS); conditions: 1-octanol/phosphate buffered saline, pH 7.4
Method: LogD(PBS) determinations were performed in 96 well microtitre plates using a miniaturised “shake-flask” method. […] The plates were then capped and mixed vigorously for 1 hour on a microtitre plate shaker, after which they were left to stand, allowing the PBS and octanol phases to separate. The PBS layer was analysed by reverse phase HPLC with mass spectrometric detection, using single ion monitoring of the [M+H]^+ species.
[formula] Where AUCstd and AUCpbs are the peak areas from the standard and test ion chromatograms respectively.

[6] = Plasma incubations (human plasma stability); conditions: 37° C., 25 μM
Method: Human and rat plasma were purchased from Innovative Research Inc. (Southfield. Mich., USA). […] Aliquots were removed at 2 and 60 minutes and quenched with an equal volume of cold acetonitrile. After mixing vigorously, the precipitated protein matter was removed by filtration (Multiscreen Solvinert filter plates, Millipore, Bedford, Mass., USA) and the filtrate analysed by reverse phase HPLC with mass spectrometric detection, using single ion monitoring of the [M+H]^+ species. Metabolic turnover was determined by comparison of peak areas from the ion chromatograms of the parent compound at 2 and 60 minutes and expressed as percent remaining at 1 hour.

[7] = tested on: human osteoclasts; conditions: literature value; cited from earlier work

Ki [2] [nM]	HLM % rem. @ 1 hr [3] [%]	logD at 1 h [5]	Human Plasma Stability % rem. @ 1 H [6] [%]	LogD pH 7.4	Compound	inhibition at 1 µM [1] [%]	Cell-based % Inh. @ 1 μM Human [4] [%]	inhibition at 1 µM [4] [%]	Cell-based % Inh. @ 1 μM Human (Lit.) [7]
2	91	0.78	97	–	CN1CCN(c2ccc(C(=O)N[C@H](C(=O)N3CC[C@H]4OCC(=O)[C@H]43)C3CCCC3)cc2)CC1 [Example 3, N-((S)-1-cyclopentyl-2-oxo-2-((3aS,6aR)-3-oxodihydro-2H-furo[3,2-b]pyrrol-4(5H,6H,6aH)-yl)ethyl)-4-(4-methylpiperazin-1-yl)benzamide]	60	74	74 to 76	–
7	–	–	–	1.55	N-((S)-1-cyclopentyl-2-oxo-2-((3aS,6aR)-3-oxodihydro-2H-furo[3,2-b]pyrrol-4(5H,6H,6aH)-yl)ethyl)-4-(4-propylpiperazin-1-yl)benzamide [Example 17]	–	>80	–	–
–	70	–	75	–	CC(C)C[C@H](NC(=O)c1ccc(C(C)(C)C)cc1)C(=O)N1CC[C@H]2OCC(=O)[C@H]21 [reference compound]	–	–	–	Lit. 60%
14	91	1.21	99	–	CN1CCN(c2ccc(C(=O)N[C@H](C(=O)N3CC[C@H]4OCC(=O)[C@H]43)C3CCCCC3)cc2)CC1 [Example 2, N-((S)-1-cyclohexyl-2-oxo-2-((3aS,6aR)-3-oxodihydro-2H-furo[3,2-b]pyrrol-4(5H,6H,6aH)-yl)ethyl)-4-(4-methylpiperazin-1-yl)benzamide]	0	76	74 to 76	–
–	95	–	95	–	CC(C)C[C@H](NC(=O)c1ccc(N2CCN(C)CC2)cc1)C(=O)N1CC[C@H]2OCC(=O)[C@H]21 [Example 1, 4-(4-methylpiperazin-1-yl)-N-((S)-4-methyl-1-oxo-1-((3aS,6aR)-3-oxodihydro-2H-furo[3,2-b]pyrrol-4(5H, 6H, 6aH)-yl)pentan-2-yl)benzamide, reference compound]	43	–	55	–
